Assay results as given in patent publication US20110178134A1, “Novel phenyl-substituted imidazolidines, process for preparation thereof, medicaments comprising said compounds and use thereof” (SANOFI-AVENTIS, priority 2008, published 2011).
pKi: −log10 of the molar value. Like-named read-outs stand apart in the source and are kept apart here.

Tests used:
[1] = molecular target: human cannabinoid receptor 1 (hCB1R) (Homo sapiens, UniProt P21554); test: Binding to human cannabinoid receptor 1 (hCB1R), [3H]-SR141716A displacement
Procedure: Binding to Human Cannabinoid Receptor 1 (hCB1R):
Test compounds: The compounds (3 μl, 10 mM, 100% DMSO), pipetted into 96-well PP microtiter plates, were diluted with 27 μl of 100% DMSO (dimethyl sulfoxide). Proceeding from this solution, further 3-fold dilution steps were undertaken by transferring […] in each case to a new PP microtiter plate and adding a further 20 μl of 100% DMSO. In each case 6 μl of these solutions were transferred into new 96-well PP microtiter plates and made up with 144 μl of assay buffer. The end concentrations ranged from 10 μM to 0.005 μM.
Negative control: AM 251, dissolved in assay buffer with 1% DMSO, was added to the dilution series in the microtiter plates as a control. The end concentration was 1 μM.
Blank control: assay buffer with 1% DMSO was added to the dilution series of the microtiter plates as a blank control.
Summary of the Assay Parameters:
High control: ^3H binding without addition of the compound
Low control: ^3H binding in the presence of 1 μM AM 251
The values were calculated using the corrected raw data.
The values reported were obtained as average values of a double determination. The IC50 values were calculated from the measurements with the program Xlfit, formula 205. Ki values were obtained from the IC50 and Kd values utilizing the Cheng-Prusoff equation: […]
Literature: Cheng, Y.-C., and Prusoff, W. H. (1973) Biochem. Pharmacol 22, 3099-3108

[2] = molecular target: T1, human androgen receptor (hAR) (Homo sapiens, UniProt P10275, T878A); test: Binding assay with human androgen receptor, [3H]methyltrienolone, LNCaP cytosol; details: for inhibition at 1 µM / inhibition at 10 µM: inhibition of [3H]methyltrienolone binding; for inhibition at 1 µM: compound 1 μM; for inhibition at 10 µM: compound 10 μM
T1 construct: for the preparation of cytosolic receptor protein, the androgen-sensitive human prostate adenocarcinoma cell line LNCaP was used; endogenous in cells; host or cells: LNCaP (human prostate adenocarcinoma) cell cytosol fraction
T1 sequence (P10275 1-920 T878A): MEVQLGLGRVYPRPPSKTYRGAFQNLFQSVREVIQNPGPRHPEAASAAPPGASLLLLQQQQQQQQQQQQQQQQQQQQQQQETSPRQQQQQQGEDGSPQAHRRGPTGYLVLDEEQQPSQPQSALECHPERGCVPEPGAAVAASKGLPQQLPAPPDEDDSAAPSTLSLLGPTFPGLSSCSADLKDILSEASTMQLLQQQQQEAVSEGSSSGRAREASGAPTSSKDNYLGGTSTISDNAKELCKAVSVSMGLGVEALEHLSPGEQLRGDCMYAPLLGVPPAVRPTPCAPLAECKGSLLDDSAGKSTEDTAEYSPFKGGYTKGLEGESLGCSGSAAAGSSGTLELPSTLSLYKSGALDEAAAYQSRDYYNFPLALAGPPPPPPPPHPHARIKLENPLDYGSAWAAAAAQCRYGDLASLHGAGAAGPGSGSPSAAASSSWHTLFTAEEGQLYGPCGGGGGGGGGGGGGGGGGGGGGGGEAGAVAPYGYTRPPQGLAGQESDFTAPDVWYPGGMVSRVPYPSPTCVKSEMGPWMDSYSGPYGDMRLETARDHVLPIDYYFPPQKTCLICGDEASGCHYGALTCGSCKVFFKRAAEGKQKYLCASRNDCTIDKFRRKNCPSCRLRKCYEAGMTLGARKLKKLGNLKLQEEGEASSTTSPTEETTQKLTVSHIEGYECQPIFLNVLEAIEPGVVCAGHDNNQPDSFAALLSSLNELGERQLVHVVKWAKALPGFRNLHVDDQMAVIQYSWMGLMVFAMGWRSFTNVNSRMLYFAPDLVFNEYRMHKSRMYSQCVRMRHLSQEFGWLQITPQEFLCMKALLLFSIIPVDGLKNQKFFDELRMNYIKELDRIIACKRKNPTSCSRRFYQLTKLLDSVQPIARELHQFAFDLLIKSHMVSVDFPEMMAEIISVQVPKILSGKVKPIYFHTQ
Procedure: Binding Assay with Human Androgen Receptor:
The binding assays on the androgen receptor were conducted according to the method of D. T. Zava et al. (1979) (“Androgen Receptor Assay with [^3H]Methyltrienolone (R1881) in the Presence of Progesterone Receptor”, Endocrinology, 104, 1007-1012). The radioactive ligand used for the binding measurement was [^3H]methyltrienolone and the reference substance was the same compound in unmarked (=nonradioactive) form. To determine the unspecific proportion of binding, 1 μM mibolerone was used. In a departure from the method cited, for the preparation of cytosolic receptor protein, the androgen-sensitive human prostate adenocarcinoma cell line LNCaP was used. For the analysis, aliquots of a cell cytosol fraction (proceeding from 10^6 cells per analysis point) were incubated, in a buffer in the presence or absence of test substance, with 0.5 nM [^3H]methyltrienolone at 4° C. for 24 hours (25 mM HEPES/Tris, 1 mM EDTA, 10 mM Na2MoO4, 2 mM DTT, 10% glycerol; pH 7.4). The samples were then mixed with 400 μl each of an activated carbon suspension and the mixtures were centrifuged (10 minutes, 8000×g). Supernatants were withdrawn and mixed with 5 ml each of scintillation cocktail, and the radioactivity of the samples was measured in a scintillation counter. Specific ligand binding to the receptors was calculated as the difference between total binding and the unspecific binding in the presence of an excess of nonmarked ligand. End results were represented as percent specific binding compared to the binding of control substance.
The strength of the binding to the human androgen receptor is expressed as percent inhibition of the binding of [^3H]methyltrienolone to the human androgen receptor. The concentration of the compounds examined is 1 μM or 10 μM. The greater the numerical value of “percent inhibition at 1 or 10 μM”, the stronger is the binding of the test substance to the human androgen receptor. Alternatively, the Ki value is reported; the greater this value compared to the Ki value based on the binding to the hCB1R, the lower is the binding to the hAR.

[3] = CHO-K1/cannabinoid CB1 protein, 0.5 nM [3H]-SR141716A, Cheng-Prusoff, read-out: hCB1R, binding Ki

Chain of human cannabinoid receptor 1 (hCB1R) (P21554 whole entry): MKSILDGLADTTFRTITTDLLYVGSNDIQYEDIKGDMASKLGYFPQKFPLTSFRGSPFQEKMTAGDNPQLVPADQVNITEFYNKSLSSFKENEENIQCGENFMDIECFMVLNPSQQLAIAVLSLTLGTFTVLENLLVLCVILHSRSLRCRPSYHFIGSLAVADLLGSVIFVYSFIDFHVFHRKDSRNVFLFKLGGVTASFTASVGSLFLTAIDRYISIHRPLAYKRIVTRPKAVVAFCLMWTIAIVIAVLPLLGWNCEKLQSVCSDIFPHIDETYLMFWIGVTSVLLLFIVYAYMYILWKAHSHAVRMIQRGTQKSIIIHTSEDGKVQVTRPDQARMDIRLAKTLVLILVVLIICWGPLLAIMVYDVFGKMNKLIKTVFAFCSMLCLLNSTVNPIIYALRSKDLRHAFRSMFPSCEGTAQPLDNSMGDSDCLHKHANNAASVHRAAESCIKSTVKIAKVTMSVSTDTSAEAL

Row | Compound | pKi [1] | inhibition at 1 µM [2] | pKi [1, 3] | also measured
1 | CC1(C)C(=O)N(c2ccc(C#N)c(C(F)(F)F)c2)C(=O)N1Cc1ccc(Cl)nc1 [Example 5, 4-[3-(6-chloropyridin-3-ylmethyl)-4,4-dimethyl-2,5-dioxoimidazolidin-1-yl]-2-trifluoromethylbenzonitrile] | 7.60 | 86% |  | 
2 | CC1(C)C(=O)N(c2ccc(C#N)c(C(F)(F)F)c2)C(=O)N1Cc1ccc(OC(F)(F)F)cc1 [Example 2, 4-[4,4-dimethyl-2,5-dioxo-3-(4-trifluoromethoxybenzyl)imidazolidin-1-yl]-2-trifluoromethylbenzonitrile] |  | 20% | 6.70 | 
3 | CC1(C)C(=O)N(c2ccc(C#N)c(C(F)(F)F)c2)C(=O)N1Cc1cc(C(F)(F)F)cc(C(F)(F)F)c1 [Example 1, 4-[3-(3,5-bis(trifluoromethyl)benzyl)-4,4-dimethyl-2,5-dioxoimidazolidin-1-yl]-2-trifluoromethylbenzonitrile] | 8.40 |  |  | inhibition at 10 µM [2]: 26%
4 | CC1(C)C(=O)N(c2ccc(Cl)c(C(F)(F)F)c2)C(=O)N1Cc1cc(C(F)(F)F)cc(C(F)(F)F)c1 [Example 10, 1-(3,5-bis(trifluoromethyl)benzyl)-3-(4-chloro-3-trifluoromethylphenyl)-5,5-dimethylimidazolidine-2,4-dione] | 7.09 | 3% |  | 
5 | CC1(C)C(=O)N(c2ccc(F)c(C(F)(F)F)c2)C(=O)N1Cc1ccc(F)cc1NS(N)(=O)=O [Example 52, N-{5-fluoro-2-[3-(4-fluoro-3-trifluoromethylphenyl)-5,5-dimethyl-2,4-dioxoimidazolidin-1-ylmethyl]phenyl}sulfamide] | 7.39 | 52% |  | 
6 | CC1(C)C(=O)N(c2ccc(F)c(C(F)(F)F)c2)C(=O)N1Cc1ccc(C(F)(F)F)nc1 [Example 7, 3-(4-fluoro-3-trifluoromethylphenyl)-5,5-dimethyl-1-(6-trifluoromethyl-pyridin-3-ylmethyl)imidazolidine-2,4-dione] |  | 47% | 6.69 | 
7 | CC1(C)C(=O)N(c2ccc(C#N)c(C(F)(F)F)c2)C(=O)N1Cc1cccc(C(F)(F)F)c1 [Example 3, 4-[4,4-dimethyl-2,5-dioxo-3-(3-trifluoromethylbenzyl)imidazolidin-1-yl]-2-trifluoromethylbenzonitrile] |  | 54% | 6.90 | 
8 | CC1(C)C(=O)N(c2ccc(Cl)c(C(F)(F)F)c2)C(=O)N1Cc1ccc(C(F)(F)F)nc1 [Example 8, 3-(4-chloro-3-trifluoromethylphenyl)-5,5-dimethyl-1-(6-trifluoromethyl-pyridin-3-ylmethyl)imidazolidine-2,4-dione] |  | 53% | 6.64 | 
9 | CC1(C)C(=O)N(c2ccc(F)c(C(F)(F)F)c2)C(=O)N1Cc1cc(C(F)(F)F)cc(C(F)(F)F)c1 [Example 9, 1-(3,5-bis(trifluoromethyl)benzyl)-3-(4-fluoro-3-trifluoromethylphenyl)-5,5-dimethylimidazolidine-2,4-dione] |  |  | 6.53 | inhibition at 10 µM [2]: 3%
10 | CC1(C)C(=O)N(c2ccc(C#N)c(C(F)(F)F)c2)C(=O)N1Cc1cccc(S(F)(F)(F)(F)F)c1 [Example 11, 4-[4,4-dimethyl-2,5-dioxo-3-(3-pentafluorosulfanylbenzyl)imidazolidin-1-yl]-2-trifluoromethylbenzonitrile] | 7.77 | 39% |  | 
11 | CC1(C)C(=O)N(c2ccc(C#N)c(C(F)(F)F)c2)C(=O)N1Cc1ccc(C(F)(F)F)nc1 [Example 6, 4-[4,4-dimethyl-2,5-dioxo-3-(6-trifluoromethylpyridin-3-ylmethyl)-imidazolidin-1-yl]-2-trifluoromethylbenzonitrile] | 7.96 | 84% |  | 
12 | CC1(C)C(=O)N(c2ccc(C#N)c(C(F)(F)F)c2)C(=O)N1Cc1ccc(C(F)(F)F)cc1 [4-[4,4-dimethyl-2,5-dioxo-3-(4-trifluoromethylbenzyl)-imidazolidin-1-yl]-2-trifluoromethylbenzonitrile, reference compound] | 7.12 |  |  | pKi ([2]; read-out: Ki value based on binding to the human androgen receptor): 7.02
13 | CC1(C)C(=O)N(c2ccc(Cl)c(C(F)(F)F)c2)C(=O)N1Cc1ccc(OCc2ccccc2)c(OCc2ccccc2)c1 [Example 37] |  |  | 6.66 | inhibition at 10 µM [2]: 4%
14 | CC1(C)C(=O)N(c2ccc(F)c(C(F)(F)F)c2)C(=O)N1Cc1ccccc1Oc1ccccc1 [Example 44, 3-(4-fluoro-3-trifluoromethylphenyl)-5,5-dimethyl-1-(2-phenoxybenzyl)imidazolidine-2,4-dione] |  |  | 7.00 | inhibition at 10 µM [2]: 15%
15 | CC1(C)C(=O)N(c2ccc(C#N)c(C(F)(F)F)c2)C(=O)N1Cc1ccc(OCc2ccccc2)c(OCc2ccccc2)c1 [Example 33, 4-[3-(3,4-bis(benzyloxy)benzyl)-4,4-dimethyl-2,5-dioxoimidazolidin-1-yl]-2-trifluoromethylbenzonitrile] | 7.59 |  |  | pKi ([2]; reported instead of % inhibition in table 5, read-out: hAR, Ki): < 6.00
16 | CC1(C)C(=O)N(c2ccc(C#N)c(C(F)(F)F)c2)C(=O)N1Cc1ccccc1Oc1ccccc1 [Example 34, 4-[4,4-dimethyl-2,5-dioxo-3-(2-phenoxybenzyl)imidazolidin-1-yl]-2-trifluoromethylbenzonitrile] | 8.22 | 30% |  | 
